Columns and labels:
[1] = at a pH greater than about 4; cited from earlier work
[2] = Excipient compatibility study: physical appearance; type: physicochemical; design: key: T: Off white powder with pellets; V: Off white powder with white pellets; W: Off white powder with off white pellets; X: Off white powder without pellets; Y: Off white powder with pellets and shells; Z: Sticky off white powder with grey pellets; S: Off white powder with blue pellets; R: Off white powder with grey pellets; Q: Off white powder with brown pellets; P: Brownish sticky powder with gray pellets; Off white powder with sticking brown pellets; N: Brownish sticky powder with blue pellets; M: Slight yellow powder with grey pellets; Light brownish sticky powder with off white pellets; K: Slight yellow agglutinate; J: Sticky off white powder with off white pellets; I: Capsule shells with white pellets and off white powder; H: Capsule shells with yellowish pellets and off white powder; conditions: stored at 40° C./75% RH
Experimental: In addition to the excipients used in the commercial formulation, some commonly used excipients were also tested. […] Samples were stored also at 25° C./60% RH to be tested only if the stress sample failed. […] The development work explored the compatibility of both APIs together with each of the proposed excipients individually in different ratios depending on the function of the excipient at different temperature and humidity conditions. The selected excipients were mixed with the APIs in different ratios depending on the excipient functionality (Table 5). In addition, samples of pure APIs and excipients were prepared and provided as reference and control respectively.

| SMILES | solubility [1] | Physical Appearance ([2]; 1 week) | Physical Appearance ([2]; 2 weeks) | Physical Appearance ([2]; 4 weeks) | Physical Appearance ([2]; 6 weeks) | Physical Appearance ([2]; 8 weeks) | Physical Appearance ([2]; 12 weeks) | Physical Appearance ([2]; Initial) |
| --- | --- | --- | --- | --- | --- | --- | --- | --- |
| COC(=O)[C@H](c1ccccc1Cl)N1CCc2sccc2C1 [clopidogrel] | reduced solubility | – | – | – | – | – | – | – |
| COC(=O)[C@H](c1ccccc1Cl)N1CCc2sccc2C1 [Clopidogrel Bisulfate] | – | X | X | X | X | X | X | X |
